The values that follow come from paper PMC12136037, “Type II kinase inhibitors that target Parkinson’s disease–associated LRRK2” (Science Advances, 2025).

The structures appear in SMILES notation.

Type in all cases: binding
Test [1] concerns the target T1, LRRK2^KW (Homo sapiens, UniProt Q5S007).
T1 construct: LRRK2 R1847 to E2527; His6-Z-tag (TEV cleavable) (N, cleaved yes); host or cells: Sf9 insect cells (baculovirus)
T1 sequence (Q5S007 1847-2527): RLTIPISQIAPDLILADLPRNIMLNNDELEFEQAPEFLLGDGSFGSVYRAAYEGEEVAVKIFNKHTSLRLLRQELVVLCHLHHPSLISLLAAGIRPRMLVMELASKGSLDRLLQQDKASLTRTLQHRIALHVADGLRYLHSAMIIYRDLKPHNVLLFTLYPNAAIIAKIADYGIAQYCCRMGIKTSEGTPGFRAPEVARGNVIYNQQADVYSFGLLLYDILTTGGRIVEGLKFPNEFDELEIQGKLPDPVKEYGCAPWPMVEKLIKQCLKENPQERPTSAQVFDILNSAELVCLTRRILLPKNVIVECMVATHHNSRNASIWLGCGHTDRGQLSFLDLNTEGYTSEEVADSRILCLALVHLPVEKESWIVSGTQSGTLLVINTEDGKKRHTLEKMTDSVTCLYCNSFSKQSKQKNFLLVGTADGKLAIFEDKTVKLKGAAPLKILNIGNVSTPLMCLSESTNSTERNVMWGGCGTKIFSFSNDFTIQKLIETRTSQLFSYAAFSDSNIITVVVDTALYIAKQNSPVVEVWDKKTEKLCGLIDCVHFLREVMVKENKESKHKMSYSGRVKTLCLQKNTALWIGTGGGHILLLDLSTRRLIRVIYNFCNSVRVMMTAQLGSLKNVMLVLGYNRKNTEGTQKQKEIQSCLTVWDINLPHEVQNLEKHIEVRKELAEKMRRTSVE
Put plainly: DSF thermal stabilization of LRRK2^KW. Conditions: DSF, LRRK2^KW, 10 μM inhibitor. In a few lines:
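DSF on 4 μM LRRK2^KW in 20 mM Hepes pH 7.4, 150 mM NaCl, 0.5 mM TCEP, 0.5% glycerol, 20 μM GDP, 2.5 mM MgCl2 with SYPRO Orange; inhibitor at 10 μM. Tm was taken as the minimum of the first derivative of fluorescence versus temperature, relative to control.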

The target in test [2] is T2, ~100 representative kinases (Homo sapiens, UniProt O75385).
T2 construct: Recombinant protein kinase domains with a concentration of 2 μM
T2 sequence (O75385 1-1050): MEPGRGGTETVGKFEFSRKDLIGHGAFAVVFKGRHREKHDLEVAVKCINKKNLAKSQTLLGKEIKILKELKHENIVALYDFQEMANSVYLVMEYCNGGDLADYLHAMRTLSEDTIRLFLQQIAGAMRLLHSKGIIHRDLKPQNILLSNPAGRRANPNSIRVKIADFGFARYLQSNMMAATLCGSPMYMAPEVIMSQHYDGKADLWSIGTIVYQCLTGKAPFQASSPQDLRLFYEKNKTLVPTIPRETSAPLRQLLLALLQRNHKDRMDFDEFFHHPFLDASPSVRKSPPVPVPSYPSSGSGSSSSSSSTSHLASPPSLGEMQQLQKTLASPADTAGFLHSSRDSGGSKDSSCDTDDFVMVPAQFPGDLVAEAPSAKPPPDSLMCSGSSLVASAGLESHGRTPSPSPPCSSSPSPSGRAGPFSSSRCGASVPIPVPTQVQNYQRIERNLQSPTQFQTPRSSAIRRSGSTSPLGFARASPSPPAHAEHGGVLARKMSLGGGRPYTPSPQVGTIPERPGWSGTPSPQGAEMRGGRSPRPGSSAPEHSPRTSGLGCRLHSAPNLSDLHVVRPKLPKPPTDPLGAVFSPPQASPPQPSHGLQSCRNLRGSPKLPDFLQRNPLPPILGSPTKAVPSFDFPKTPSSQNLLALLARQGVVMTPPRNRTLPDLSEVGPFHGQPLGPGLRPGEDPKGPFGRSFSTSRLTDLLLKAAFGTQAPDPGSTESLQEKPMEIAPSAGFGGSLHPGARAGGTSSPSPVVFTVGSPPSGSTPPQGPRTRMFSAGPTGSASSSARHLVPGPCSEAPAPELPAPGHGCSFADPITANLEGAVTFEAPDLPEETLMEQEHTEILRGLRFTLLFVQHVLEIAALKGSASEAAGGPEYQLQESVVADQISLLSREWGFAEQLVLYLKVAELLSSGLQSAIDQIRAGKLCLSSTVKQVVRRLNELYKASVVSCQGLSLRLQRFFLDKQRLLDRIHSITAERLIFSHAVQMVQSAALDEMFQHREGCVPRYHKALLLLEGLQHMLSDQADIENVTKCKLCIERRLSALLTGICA
As to the kind of experiment: DSF 100 kinase selectivity screen.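 Also: compound tested at 20 µM.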 Conditions: Protein ULK1; DSF; average of three replicates. In a few lines: (§1)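 Each kinase domain, at 2 μM, is mixed with 20 μM test compound and SYPRO Orange in Hepes (20 mM, pH 7.5) with 500 mM NaCl. Temperature is then raised at 3°C/min and fluorescence-monitored unfolding yields the melting temperature change, ΔTm in degrees Celsius.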

The target of test [3] is T3, ~100 representative kinases (Homo sapiens, UniProt P22607).
T3 construct: Recombinant protein kinase domains with a concentration of 2 μM
Put plainly: DSF 100 kinase selectivity screen.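 Also: compound tested at 20 µM.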 Conditions: protein FGFR3; average of three replicates. In outline:
as §1

Test [4] has as its target T4, ~100 representative kinases (Homo sapiens, UniProt Q96GD4).
T4 construct: Recombinant protein kinase domains with a concentration of 2 μM
Put plainly: DSF 100 kinase selectivity screen.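 Also: compound tested at 20 µM.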 Conditions: Protein AURKB; average of three replicates. In outline:
as §1

T4 sequence (Q96GD4 whole entry, the tested form may be a part): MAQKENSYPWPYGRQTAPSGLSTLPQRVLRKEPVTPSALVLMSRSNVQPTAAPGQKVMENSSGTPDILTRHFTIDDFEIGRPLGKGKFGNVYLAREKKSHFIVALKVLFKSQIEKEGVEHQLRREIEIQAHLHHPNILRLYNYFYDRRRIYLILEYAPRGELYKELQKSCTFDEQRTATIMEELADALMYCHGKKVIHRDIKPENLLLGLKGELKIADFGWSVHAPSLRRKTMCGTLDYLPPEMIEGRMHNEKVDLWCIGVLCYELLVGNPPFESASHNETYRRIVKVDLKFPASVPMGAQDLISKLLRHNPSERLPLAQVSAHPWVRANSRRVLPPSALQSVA
T3 sequence (P22607 23-806): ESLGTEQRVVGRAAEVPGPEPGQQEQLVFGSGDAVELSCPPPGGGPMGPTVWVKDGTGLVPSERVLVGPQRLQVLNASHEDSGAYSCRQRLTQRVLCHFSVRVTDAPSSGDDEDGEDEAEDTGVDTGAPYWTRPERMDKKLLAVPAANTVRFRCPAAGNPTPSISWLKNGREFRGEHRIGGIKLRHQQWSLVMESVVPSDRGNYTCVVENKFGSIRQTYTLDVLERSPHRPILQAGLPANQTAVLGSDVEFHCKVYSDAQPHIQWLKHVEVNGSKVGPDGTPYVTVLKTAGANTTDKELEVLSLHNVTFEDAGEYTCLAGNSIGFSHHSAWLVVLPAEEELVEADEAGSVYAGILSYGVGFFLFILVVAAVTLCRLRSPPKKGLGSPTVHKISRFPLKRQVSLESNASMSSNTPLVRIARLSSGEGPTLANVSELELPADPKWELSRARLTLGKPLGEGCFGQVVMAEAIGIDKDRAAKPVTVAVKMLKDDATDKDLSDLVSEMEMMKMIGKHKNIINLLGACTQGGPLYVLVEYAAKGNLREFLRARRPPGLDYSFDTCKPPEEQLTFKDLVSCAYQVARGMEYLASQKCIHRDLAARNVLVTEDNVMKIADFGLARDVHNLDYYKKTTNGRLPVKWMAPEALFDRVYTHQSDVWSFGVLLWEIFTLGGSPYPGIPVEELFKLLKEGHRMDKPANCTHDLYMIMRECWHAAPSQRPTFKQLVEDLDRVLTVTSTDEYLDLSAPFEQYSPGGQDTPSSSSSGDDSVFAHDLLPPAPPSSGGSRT

Take `Cc1ccc(C(=O)Nc2ccc(CN3CCN(C)CC3)c(C(F)(F)F)c2)cc1C#Cc1c[nH]c2ncnc(N3CCOCC3)c12` [Compound 1]: the “∆Tm (K)” value in test [1] is 9.5 K. In addition, the figures for the dTm in test [2], in test [3] and in test [4] were 6.89 K, 4.20 K and 1.01 K, respectively.

For the compound `Cc1cc(NC(=O)C2(C(=O)Nc3ccc(F)cc3)CC2)cc(-c2c[nH]c3ncnc(N4CCOCC4)c23)c1` [Compound 6], the “∆Tm (K)” value in test [1] worked out at 10.0 K. Also, the dTm in test [2] stood at 5.26 K; in test [3], 1.74 K; in test [4] it was 4.75 K.

`O=C(Nc1cccc(-c2c[nH]c3ncnc(N4CCOCC4)c23)c1)C1(C(=O)Nc2cccc3c2CCC3)CC1` [Compound 11]: the “∆Tm (K)” value in test [1] is recorded as 9.2 K. Besides, the dTm is given as 6.92 K in test [2], 2.85 K in test [3] and -0.43 K in test [4].

On to `O=C(Nc1cccc(-c2c[nH]c3ncnc(N4CCOCC4)c23)c1)C1(C(=O)Nc2ccc(F)c(Br)c2)CC1` [Compound 19], for which the “∆Tm (K)” value in test [1] was 14.0 K. For the same compound, the figures for the dTm in test [2], in test [3] and in test [4] were 12.52 K, 4.74 K and 5.64 K, respectively.

On to `CC(C)(C)c1cccc(NC(=O)C2(C(=O)Nc3cccc(-c4c[nH]c5ncnc(N6CCOCC6)c45)c3)CC2)c1` [Compound 22], for which the “∆Tm (K)” value in test [1] is 12.0 K. Also, the dTm is listed as 9.16 K in test [2], 4.54 K in test [3] and 1.96 K in test [4].

For the compound `O=C(Nc1cccc(-c2c[nH]c3ncnc(N4CCOCC4)c23)c1)C1(C(=O)Nc2cc(Br)c(F)cc2F)CC1` [Compound 25], the “∆Tm (K)” value in test [1] is reported as 9.0 K. In addition, the dTm is listed as 7.16 K in test [2], 2.90 K in test [3] and -2.86 K in test [4].

Take `O=C(Nc1cccc(-c2c[nH]c3ncnc(N4CCOCC4)c23)c1)C1(C(=O)Nc2ccc(F)c(Br)c2F)CC1` [Compound 26]: the “∆Tm (K)” value in test [1] is 10.7 K. In addition, the values for the dTm in test [2], in test [3] and in test [4] were 8.48 K, 3.36 K and 0.97 K, respectively.

As to `O=C(Nc1cc(F)cc(Br)c1)C1(C(=O)Nc2cccc(-c3c[nH]c4ncnc(N5CCOCC5)c34)c2)CC1` [Compound 27], the “∆Tm (K)” value in test [1] stood at 10.2 K. The figures for the dTm in test [2], in test [3] and in test [4] were 6.71 K, 2.07 K and 2.17 K, respectively.

For `Cc1ccc(C(=O)Nc2ccc(CN3CCN(C)CC3)c(C(F)(F)F)c2)cc1C#Cc1cnc2[nH]ncc2c1` [GZD-824, reference compound], in test [1], the “∆Tm (K)” value is reported as 21.2 ± 2.5 K. The dTm in test [2] was determined as 6.60 K; in test [3], 14.11 K; in test [4] it was 1.02 K.
